Assays:
[1] = biological target: human emopamil binding protein and human 7-dehydrocholesterol reductase co-expressing cells (hEBP-DHCR7 membrane) (Homo sapiens (Human), UniProt Q15125); test: Radioligand filter binding assay on hEBP-DHCR7 membrane; settings: [3H]-(S)-6-(2-Methyl-3-(6-(trifluoromethyl)pyridin-3-yl)propyl)-2-thia-6-azaspiro[3.4]octane 2,2-dioxide radioligand, HEK293 membrane co-expressing hEBP and hDHCR7
Description: Membrane Preparation: human emopamil binding protein and human 7-dehydrocholesterol reductase co-expressing cells were generated by transient transfecting host human embryonic kidney (HEK) 293 cells with 2 DNA constructs containing each protein's coding sequence. Cells were suspension cultured at 37° C. with 5% CO2 in […] 293 Expression Medium (Thermofisher). Whole cell membrane was prepared by harvesting the cell pellet, adding cold membrane buffer (50 mM Tris, pH7.5, lx Roche COMPLETE EDTA-free protease inhibitor cocktail) 10 times volume of the cell pellets weight, lysing cell pellet on ice by using Dounce homogenizer, spinning at 200 g 4° C. for 15 min, collecting supernatant and spinning again at 25000 g 4° C. for 50 min, transferring pellet to Dounce homogenizer, re-suspending pellet by homogenizing in membrane buffer on ice to reach ˜25 mg/mL, then keeping whole cell membrane aliquots at −80° C.
Compounds were prepared in a 96-well U bottom plate using an Echo550 machine and 10 mM compound DMSO stock solution, followed by an 8-dose 5-fold serial dilutions protocol with final testing compound concentration ranging from 0.06 to 5000 nM, with DMSO back fill to 100 nL/well and n=2. […] The UniFilter-96 GF/B plates were pre-treated by adding 50 μl/well of 0.3% (v/v) PEI to UniFilter-96 GF/B plates. The plates were sealed and incubated at 4° C. for 3 hrs. Then, the plates were washed with ice-cold assay buffer 3 times. The radioligand binding assay was prepared by adding assay buffer diluted hEBP-DHCR7 membrane at 66.7 μg/ml×150 μl/well into the 96-well compound plate to reach 10 μg membrane per well. Then, the assay buffer diluted [3H]—(S)-6-(2-Methyl-3-(6-(trifluoromethyl)pyridin-3-yl)propyl)-2-thia-6-azaspiro[3.4] octane 2,2-dioxide was added at 25 nM×50 μl/well. Following this, the plate was centrifuged at 1000 rpm for 30 secs. The plate was then sealed and agitated at 600 rpm at 22° C. for 5 min, and then incubated at 22° C. for 3 hrs. The incubation was stopped by transferring the binding solution to the pre-treated UniFilter-96 GF/B plate, vacuum filtrated, and then washed four times with ice-cold assay buffer. Following this, the plates were dried at 37° C. for 45 min. The plates were then sealed at the bottom. 40 μl/well of scintillation cocktail was added to the plates. A MicroBeta2 microplate counter was then used to read the plate and analyze the data. For reference and test compounds, the results are expressed as % Inhibition, using the normalization equation: N=100−100×(U−C2)/(C1−C2), where U is the unknown value, C1 is the average of high controls, and C2 is the average value of low controls. The IC50 was determined by fitting percentage of inhibition as a function of compound concentrations with Hill equation using XLfit. Results are expressed as hEBP-DHCR7 Ki (uM) in Table 4. Ki was calculated as described above. The asterix (*) indicates an isolated isomer or isolated group of isomers, but that the stereochemistry has not been assigned.

[2] = system: EBP (zymostenol accumulation in EpiSC-derived OPCs); test: GC/MS-based sterol profiling, zymostenol accumulation in OPCs; assay type: cell-based, mouse; settings: Mus musculus, 24 h, EpiSC-derived OPCs, 24 hr treatment, 8 doses from 0.15 nM to 333 nM; read-out: Zymostenol GCMS EC50
Description: To assess effects of treatments on OPCs, all treatments were assayed in two or more independent platings of epiblast stem cell-derived OPCs ([…]-derived OPCs were obtained using in vitro differentiation protocols and culture conditions described previously (Najm et al, 2011, Nature Methods). OPCs were expanded and frozen down in aliquots. OPCs were thawed into growth conditions for at least one passage before use in further assays. Sterols were monitored using a modified Folch wash protocol (Hubler et al, 2018, Nature). EpiSC-derived OPCs were plated at 100,000 cells per well in PO- and laminin-coated 96-well plates in N2B27 media without growth factors. After 24 hours, cells were rinsed with saline and plates were frozen. Cholesterol-d7 standard was then added to each well before drying under nitrogen stream and derivatization with 55 μl of bis(trimethylsilyl) trifluoroacetamide. After derivatization, 2 μl were analyzed by gas chromatography/mass spectrometry using an Agilent 5973 Network Mass Selective Detector equipped with a 6890 gas chromatograph system and a HP-5MS capillary column (30 m×0.25 mm×0.25 mm). Samples were analyzed in full scan mode using electron impact ionization; ion fragment peaks were integrated to calculate sterol abundance, and quantitation was relative to cholesterol-d7. […] All standards were obtained from Avanti Polar Lipids unless otherwise indicated. Calibration curves were generated by injecting varying concentrations of sterol standards and maintaining a fixed amount of cholesterol-D7. For normalized zymostenol accumulation results, the total amount of zymostenol measured after drug treatment was divided by the total amount of zymostenol accumulated after 24 hr treatment with 100 nM positive control reference.

EpiSC-derived OPCs = test: In vitro phenotypic screening of OPCs (MBP staining, high-content imaging); assay type: cell-based, mouse; settings: Mus musculus, 72 h, percentage of MBP+ oligodendrocytes, 3 days, 0.5 nM to 1000 nM; read-out: OPC EC50
Description: To assess effects of treatments on OPCs, all treatments were assayed in two or more independent platings of epiblast stem cell-derived OPCs (EpiSC). EpiSC-derived OPCs were obtained using in vitro differentiation protocols and culture conditions described previously (Najm et al, 2011, Nature Methods). OPCs were expanded and frozen down in aliquots. OPCs were thawed into growth conditions for at least one passage before use in further assays.
EpiSC-derived OPCs were grown and expanded in poly-L-ornithine (PO) and laminin-coated flasks in N2B27 media (DMEM/F12 (Gibco), N2-MAX (R&D Systems), B-27 (ThermoFisher), and GlutaMax (Gibco)) supplemented with FGF2 ([…], R&D systems, 233-FB-025) and PDGF-AA ([…], R&D systems, 233-AA-050) before harvesting for experiments. The cells were seeded onto poly-L-ornithine or poly-D-lysine coated CellCarrier Ultra plates (PerkinElmer) coated with laminin (Sigma, L2020) at a density of 150,000/cm^2 in N2B27 media without growth factors. For dose-response testing, a 1000× compound stock in dimethyl sulphoxide (DMSO) was added to assay plates, resulting in 8-point dose curves with final concentrations between 1000 nM and 0.5 nM. Positive controls and DMSO vehicle controls were included in each assay plate. Cells were incubated under standard conditions (37° C., 5% CO2) for 3 days and fixed with 4% paraformaldehyde (PFA) in phosphate buffered saline (PBS) for 20 min. Fixed plates were washed with PBS, permeabilized with 0.1% Triton X-100, and blocked with 10% donkey serum (v/v) in PBS for 40 min. Then, cells were labelled with MBP antibodies (Abcam, ab7349; 1:200) for 2 h at room temperature, washed with PBS, and stained with Alexa Fluor conjugated secondary antibodies (1:500) for 45 min. Nuclei were visualized by DAPI staining (Sigma; 1 μg/ml), followed by further PBS washes.
Cells and cell culture plates were imaged on the Operetta High Content Imaging and Analysis system (PerkinElmer). Analysis (PerkinElmer Harmony and Columbus software) began by identifying intact nuclei stained by DAPI. The peri-nuclear region of each cell was then cross-referenced with the mature myelin protein (MBP) stain to identify oligodendrocyte nuclei, and from this the percentage of oligodendrocytes was calculated. EC50 values were calculated using The Levenberg-Marquardt algorithm to fit a Hill equation to dose-response data (0.5 nM to 1000 nM).

human emopamil binding protein and human 7-dehydrocholesterol reductase co-expressing cells (hEBP-DHCR7 membrane), sequence (Q15125 whole entry): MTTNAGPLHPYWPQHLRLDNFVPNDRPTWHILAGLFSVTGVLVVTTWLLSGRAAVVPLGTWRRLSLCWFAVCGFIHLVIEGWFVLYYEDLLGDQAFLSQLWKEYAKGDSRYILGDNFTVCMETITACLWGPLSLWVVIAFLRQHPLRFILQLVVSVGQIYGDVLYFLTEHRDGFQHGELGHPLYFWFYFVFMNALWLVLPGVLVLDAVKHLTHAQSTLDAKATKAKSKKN

SMILES | Ki [1] [nM] | EC50 [2] [nM] | EC50 (EpiSC-derived OPCs) [nM]
CC(C)n1nc(-c2cccc(C(F)(F)F)n2)cc1[C@H]1CC[C@H](N2CCC3(CC2)CS(=O)(=O)C3)C1 (single isomer, unassigned) [46D*] | 12 | 1.1 | 2.4
O=S1(=O)CC2(CCN([C@H]3CC[C@H](c4cc(C(F)(F)F)ncc4Cl)CC3)C2)C1 [Compound 87, 6-((1r,4r)-4-(5-Chloro-2-(trifluoromethyl)pyridin-4-yl)cyclohexyl)-2-thia-6-azaspiro[3.4]octane 2,2-dioxide] | 12 | 8.8 | 33
O=S1(=O)CC2(CCN([C@H]3CC[C@@H](c4ccc(C(F)(F)F)nc4)CC3)CC2)C1 [81B*, 7-((1s,4s)-4-(6-(Trifluoromethyl)pyridin-3-yl)cyclohexyl)-2-thia-7-azaspiro[3.5]nonane 2,2-dioxide] | 470 | 42 | 270
O=S1(=O)CC2(CCN([C@H]3CCC[C@@H](c4ccc(C(F)(F)F)nc4)C3)CC2)C1 (single isomer, unassigned) [56C*] | 140 | 19 | 76
CC(C)n1nc(C(F)(F)F)cc1[C@H]1CCC[C@H](N2CCC3(CC2)CS(=O)(=O)C3)C1 (single isomer, unassigned) [78D*] | 37 | 19 | 124
O=S1(=O)CC2(CCN([C@H]3CC[C@H](c4ncc(C(F)(F)F)cc4Cl)CC3)C2)C1 [Compound 48A, 6-((1r,4r)-4-(3-chloro-5-(trifluoromethyl)pyridin-2-yl)cyclohexyl)-2-thia-6-azaspiro[3.4]octane 2,2-dioxide] | 31 | 3.7 | 4
CC(C)n1nc(-c2cccc(C(F)(F)F)n2)cc1[C@H]1CC[C@@H](N2CCC3(CC2)CS(=O)(=O)C3)C1 (single isomer, unassigned) [46C*] | 13 | 1.7 | 5.2
O=S1(=O)CC2(CCN([C@@H]3CCC[C@H](c4ccc(C(F)(F)F)nc4)C3)CC2)C1 (single isomer, unassigned) [56A*] | 61 | 30 | 270
CC(C)n1nc(-c2ccc(C(F)(F)F)cc2)nc1[C@H]1CC[C@@H](N2CCC3(C2)CS(=O)(=O)C3)C1 (single isomer, unassigned) [53B*] | 9.9 | 0.89 | 2.4
O=S1(=O)CC2(CCN([C@H]3CCC[C@H](c4ccc(C(F)(F)F)nc4)C3)CC2)C1 (single isomer, unassigned) [56B*] | 170 | 320 | 870
O=S1(=O)CC2(CCN([C@H]3CC[C@H](c4ccc(C(F)(F)F)cn4)CC3)CC2)C1 [Compound 50A, 7-((1r,4r)-4-(5-(Trifluoromethyl)pyridin-2-yl)cyclohexyl)-2-thia-7-azaspiro[3.5]nonane 2,2-dioxide] |  | 26 | 29
O=S1(=O)CC[C@@]2(CCCN([C@H]3CC[C@@H](c4ccc(C(F)(F)F)nc4)CC3)C2)C1 (single isomer, unassigned) [71A*] |  | 6 | 19
O=S1(=O)CC2(CCN([C@H]3CC[C@@H](c4ccc(C(F)(F)F)cn4)CC3)CC2)C1 [Compound 50B, 7-((1s,4s)-4-(5-(trifluoromethyl)pyridin-2-yl)cyclohexyl)-2-thia-7-azaspiro[3.5]nonane 2,2-dioxide] |  | 32 | 45
O=S1(=O)CC2(CCN([C@H]3CC[C@@H](c4ccc(C(F)(F)F)cn4)CC3)C2)C1 [Compound 96, 6-((1s,4s)-4-(5-(Trifluoromethyl)pyridin-2-yl)cyclohexyl)-2-thia-6-azaspiro[3.4]octane 2,2-dioxide] |  | 71 | 110
O=S1(=O)CC2(CCN([C@H]3CC[C@H](c4ccc(C(F)(F)F)cn4)CC3)C2)C1 [Compound 49, 6-((1r,4r)-4-(5-(Trifluoromethyl)pyridin-2-yl)cyclohexyl)-2-thia-6-azaspiro[3.4]octane 2,2-dioxide] |  | 9.9 | 15
O=S1(=O)CC2(CCN([C@H]3CC[C@@H](c4ccnc(C(F)(F)F)c4)CC3)CC2)C1 [Compound 90A, 7-((1s,4s)-4-(2-(Trifluoromethyl)pyridin-4-yl)cyclohexyl)-2-thia-7-azaspiro[3.5]nonane 2,2-dioxide] |  | 31 | 240
O=S1(=O)CC2(CCN([C@H]3CC[C@H](c4cnc(C(F)(F)F)c(F)c4)CC3)C2)C1 [Compound 72A, 6-((1r,4r)-4-(5-fluoro-6-(trifluoromethyl)pyridin-3-yl)cyclohexyl)-2-thia-6-azaspiro[3.4]octane 2,2-dioxide] |  | 9.4 | 18
CC(C)n1nc(C(F)(F)F)cc1[C@H]1CC[C@@H](N2CCC[C@@]3(CCS(=O)(=O)C3)C2)CC1 (single isomer, unassigned) [91A*] |  | 3.4 | 9.4
